How the values were obtained:
[1] = tested on: Lactobacillus bifidus; test: Effect on intestinal bacteria: number of Lactobacillus bifidus in feces; format: in vivo, ICR mice; settings: 500 mg/kg/day
Protocol: (§1) (b) Effect on the intestinal bacterial colonies: […]
(§2) Effects of the present compound on intestinal bacteria
(§3) Each of the present compounds respectively produced in Examples 1 to 18 was orally administered continuously for 2 days at a daily dose rate of 500 mg/kg body weight to each of five female ICR mice of each group after 6 weeks of their birth.
(§4) Each of the two fecal specimens respectively collected from each mouse before and after one day of the administration was diluted with 100 times by weight of an anaerobic diluent (a phosphoric acid buffer solution) and was ground in a mortar, and 0.1 ml of the thus ground material was smeared on each of the following culture media for the following bacteria, and the thus inoculated culture media were incubated under the following conditions. Thereafter, the number of the following bacteria in each of the thus cultured media was determined.
BS agar 37° C., 5 days, […]

[2] = tested on: Pseudomonas aeruginosa; test: Effect on intestinal bacteria: number of Pseudomonas aeruginosa in feces; format: in vivo, ICR mice; settings: 500 mg/kg/day
Protocol: as §2, §3, §4
NAC agar 37° C., one day, […]

[3] = tested on: a species of Streptococcus; test: Effect on intestinal bacteria: number of a sp. of Streptococcus in feces; format: in vivo, ICR mice; settings: 500 mg/kg/day
Protocol: as §1, §2, §3, §4
a species of Streptococcus
TATAC agar 37° C., one day, […]

[4] = tested on: a species of Lactobacillus; test: Effect on intestinal bacteria: number of a sp. of Lactobacillus in feces; format: in vivo, ICR mice; settings: 500 mg/kg/day
Protocol: as §1, §2, §3, §4
a species of Lactobacillus
LBS agar 37° C., 5 days, […]

[5] = tested on: a species of Bacteroides; test: Effect on intestinal bacteria: number of a sp. of Bacteroides in feces; format: in vivo, ICR mice; settings: 500 mg/kg/day
Protocol: as §1, §2, §3, §4
a species of Bacteroides
NBGT agar 37° C., 5 days, […]

[6] = tested on: Escherichia coli; test: Effect on intestinal bacteria: number of Escherichia coli in feces; format: in vivo, ICR mice; settings: 500 mg/kg/day
Protocol: (b) Effect on the intestinal bacterial colonies:
[…] Each portion of the two kinds of the feces was cultured at 25° C. or 37° C. in a variety of culture medium for one to five days to see the state of Escherichia coli, Pseudomonas aeruginosa, a Streptococcus species, a Lactobacillus species, Lactobacillus bifidus and a Bacteroides species in the culture medium.
as §2
as §4, with “specimens respectively collected from each mouse before and after one day of the administration was diluted with 100 times” left out

[7] = tested on: Escherichia coli IFO 12734; test: Antibacterial activity in vitro (MIC) against Escherichia coli; format: cell-based; settings: IFO12734, Mueller-Hinton agar, 18 to 24 hours, 37° C., read-out: MIC (minimum growth inhibiting concentration) against Escherichia coli
Protocol: (§5) (c) Anti-bacterial activity (in vitro):
(§6) Minimum concentration of the present compound inhibiting the growth of the following bacteria was determined according to the standard procedures of Japan Society of Chemotherapy:
Escherichia coli IFO 12734 and
(§7) Determination of the antibacterial activity of the present compound produced in Examples 1 to 18, respectively was carried out according to the standard procedures of Japan Society of Chemotherapy for finding MIC (the minimum concentration of a specimen to inhibit the growth of a species of bacteria).
(§8) A series of diluted solutions of each of the present compound were mixed with 9 times by weight of Mueller-Hinton's culture medium as the culture medium for determining the sensitivity of a bacterial species, and flat agar culture plates were prepared by using the thus obtained mixture.
(§9) Each of the liquids respectively containing one of the bacterial species shown in Table 2 was smeared onto each of the thus prepared flat agar culture plates with a platinum loop, in length of about 2 cm, and the thus treated plates were incubated for 18 to 24 hours at 37° C. Thereafter, by observing the growth state of each bacterial species on the cultured plates, the minimum concentration of each compound completely inhibiting the growth of each bacterial species was found.

[8] = tested on: Staphylococcus aureus IAM 1011; test: Antibacterial activity in vitro (MIC) against Staphylococcus aureus; format: cell-based; settings: IAM1011, Mueller-Hinton agar, 18 to 24 hours, 37° C., read-out: MIC (minimum growth inhibiting concentration) against Staphylococcus aureus
Protocol: as §5, §6
Staphylococcus aureus IAM 1011
as §7, §8, §9

[9] = after oral administration for 2 days, female ICR mice, before: 8.3
[10] = after oral administration for 2 days, female ICR mice, before: <3.0
[11] = after oral administration for 2 days, female ICR mice, before: 6.8
[12] = after oral administration for 2 days, female ICR mice, before: 9.0
[13] = after oral administration for 2 days, female ICR mice, before: 8.2
[14] = after oral administration for 2 days, female ICR mice, before: 6.4

Number of Escherichia coli after the administration [6, 14]	Number of Lactobacillus bifidus after the administration ([1]; mouse, in vivo, po)	Number of Pseudomonas aeruginosa after the administration ([2]; mouse, in vivo, po)	Number of a sp. of Streptococcus after the administration ([3]; mouse, in vivo, po)	Number of a sp. of Lactobacillus after the administration ([4]; mouse, in vivo, po)	Number of a sp. of Bacterioides after the administration ([5]; mouse, in vivo, po)	MIC [7] [µg/mL]	MIC [8] [µg/mL]	Number of Escherichia coli after the administration ([6]; mouse, in vivo, po)	SMILES	Number of Lactobacillus bifidus after the administration [1, 9]	Number of Pseudomonas aeruginosa after the administration [2, 10]	Number of a sp. of Streptococcus after the administration [3, 11]	Number of a sp. of Lactobacillus after the administration [4, 12]	Number of a sp. of Bacterioides after the administration [5, 13]
9.0 Log10 (number of bacteria/g feces)	6.0 Log10 (number of bacteria/g feces)	< 3.0 Log10 (number of bacteria/g feces)	9.1 Log10 (number of bacteria/g feces)	4.6 Log10 (number of bacteria/g feces)	8.2 Log10 (number of bacteria/g feces)				CC(=O)OCC1=C(C(=O)O)N2C(=O)C(NC(=O)CC#N)C2SC1 (stereo not drawn) [Compound X, sodium 7(2-cyanoacetamido)cephalosporanate, reference compound]					
6.9 Log10 (number of bacteria/g feces)	8.4 Log10 (number of bacteria/g feces)	< 3.0 Log10 (number of bacteria/g feces)	6.7 Log10 (number of bacteria/g feces)	9.1 Log10 (number of bacteria/g feces)	8.8 Log10 (number of bacteria/g feces)	≥ 100	≥ 12.5		COC(=O)c1ccc(NC(=O)C2=C(COC(C)=O)CSC3C(NC(=O)CSc4ccncc4)C(=O)N23)cc1 (stereo not drawn) [Example 1, N-(4-carbomethoxyphenyl)-[7-beta-(4-pyridylthioacetamido)cephalosporanic]amide]					
6.5 Log10 (number of bacteria/g feces)	8.6 Log10 (number of bacteria/g feces)	< 3.0 Log10 (number of bacteria/g feces)	6.6 Log10 (number of bacteria/g feces)	9.0 Log10 (number of bacteria/g feces)	8.7 Log10 (number of bacteria/g feces)	≥ 100	≥ 50		COC(=O)Cc1ccc(NC(=O)C2=C(COC(C)=O)CSC3C(NC(=O)CSc4ccncc4)C(=O)N23)cc1 (stereo not drawn) [Example 2, N-(4-carbomethoxymethylphenyl)-[7-(4-pyridylthioacetamido)caphalosporanic]amide]					
6.5 Log10 (number of bacteria/g feces)	8.5 Log10 (number of bacteria/g feces)	< 3.0 Log10 (number of bacteria/g feces)	6.7 Log10 (number of bacteria/g feces)	9.1 Log10 (number of bacteria/g feces)	8.1 Log10 (number of bacteria/g feces)	≥ 100	≥ 50		COC(=O)CNC(=O)c1ccc(NC(=O)C2=C(COC(C)=O)CSC3C(NC(=O)CSc4ccncc4)C(=O)N23)cc1 (stereo not drawn) [Example 3, N-(4-carbomethoxymethylcarbamoylphenyl)-[7-(4-pyridylthioacetamido)cephalosporanic]amide]					
6.7 Log10 (number of bacteria/g feces)	8.6 Log10 (number of bacteria/g feces)	< 3.0 Log10 (number of bacteria/g feces)	6.7 Log10 (number of bacteria/g feces)	9.0 Log10 (number of bacteria/g feces)	8.7 Log10 (number of bacteria/g feces)	≥ 100	≥ 100		CC(=O)OCC1=C(C(=O)Nc2ccc(C(N)=O)cn2)N2C(=O)C(NC(=O)CSc3ccncc3)C2SC1 (stereo not drawn) [Example 6, N-(nicotinamido)-[7-(4-pyridylthioacetamido)cephalosporanic acid]amide]					
6.5 Log10 (number of bacteria/g feces)	8.3 Log10 (number of bacteria/g feces)	< 3.0 Log10 (number of bacteria/g feces)	6.7 Log10 (number of bacteria/g feces)	9.0 Log10 (number of bacteria/g feces)	8.7 Log10 (number of bacteria/g feces)	≥ 100	≥ 100		COC(=O)c1ccc(NC(=O)C2=C(COC(C)=O)CSC3C(NC(=O)CC#N)C(=O)N23)cc1 (stereo not drawn) [Example 7, N-(4-carbomethoxyphenyl)-[7-(2-cyanoacetamido)cephalosporanic]amide]					
	9.1 Log10 (number of bacteria/g feces)	< 3.0 Log10 (number of bacteria/g feces)	8.6 Log10 (number of bacteria/g feces)	4.0 Log10 (number of bacteria/g feces)	7.3 Log10 (number of bacteria/g feces)			8.9 Log10 (number of bacteria/g feces)	Cc1nnc(SCC2=C(C(=O)O)N3C(=O)[C@@H](NC(=O)Cn4cnnn4)[C@H]3SC2)s1 [SODIUM CEFAZORIN, reference compound]					

SMILES	Number of Escherichia coli after the administration [6, 14]	Number of Lactobacillus bifidus after the administration ([1]; mouse, in vivo, po)	Number of Pseudomonas aeruginosa after the administration ([2]; mouse, in vivo, po)	Number of a sp. of Streptococcus after the administration ([3]; mouse, in vivo, po)	Number of a sp. of Lactobacillus after the administration ([4]; mouse, in vivo, po)	Number of a sp. of Bacterioides after the administration ([5]; mouse, in vivo, po)	MIC [7] [µg/mL]	MIC [8] [µg/mL]	Number of Escherichia coli after the administration ([6]; mouse, in vivo, po)	Number of Lactobacillus bifidus after the administration [1, 9]	Number of Pseudomonas aeruginosa after the administration [2, 10]	Number of a sp. of Streptococcus after the administration [3, 11]	Number of a sp. of Lactobacillus after the administration [4, 12]	Number of a sp. of Bacterioides after the administration [5, 13]
CC1=C(C(=O)O)N2C(=O)[C@@H](NC(=O)[C@H](N)c3ccccc3)[C@H]2SC1 [CEFALEXIN, 7(D-alpha-amino-alpha-phenylacetamido)-3-methyl-3-cephem-4-carboxylic aci, reference compound]	9.2 Log10 (number of bacteria/g feces)									8.0 Log10 (number of bacteria/g feces)	< 3.0 Log10 (number of bacteria/g feces)	8.5 Log10 (number of bacteria/g feces)	4.0 Log10 (number of bacteria/g feces)	8.1 Log10 (number of bacteria/g feces)
CC(=O)OCC1=C(C(=O)O)N2C(=O)[C@@H](NC(=O)CSc3ccncc3)[C@H]2SC1 [CEPHAPIRIN, 7(4-pyridylthioacetamido)cephalosporanic acid, reference compound]	9.0 Log10 (number of bacteria/g feces)									9.1 Log10 (number of bacteria/g feces)	< 3.0 Log10 (number of bacteria/g feces)	9.1 Log10 (number of bacteria/g feces)	4.1 Log10 (number of bacteria/g feces)	8.5 Log10 (number of bacteria/g feces)
COC(=O)Cc1ccc(NC(=O)C2=C(C)CSC3C(NC(=O)[C@H](N)c4ccccc4)C(=O)N23)cc1 (stereo partly drawn) [Example 4, N-(4-carbomethoxymethylphenyl)-[7-(D-alpha-aminophenylacetamido)desacetoxycephalosporanic]amide]	6.6 Log10 (number of bacteria/g feces)	8.3 Log10 (number of bacteria/g feces)	< 3.0 Log10 (number of bacteria/g feces)	6.8 Log10 (number of bacteria/g feces)	8.9 Log10 (number of bacteria/g feces)	8.3 Log10 (number of bacteria/g feces)	≥ 100	≥ 100						

From patent US4758558A, “N-(substituted)-[7-(2-cyanoacetamido)cephalosporanic]amide derivatives having antibiotic utility” (priority 1982, dated 1988)
